Test results from patent US9656988B2 (Pharmacyclics LLC, priority 2013, dated 2017).
Like-named read-outs stand apart in the source and are kept apart here.

Target: BTK (Homo sapiens (Human), UniProt Q06187)
Test: Btk in vitro inhibitory activity (one of Method A TR-FRET, Method B electrophoretic mobility shift, Method C radiometric filter binding)
Assay type: biochemical
[1] = determined using one of the methods of Example 355a, 355b and 355c, read-out: BTK IC50

Sequence of BTK (Q06187 whole entry): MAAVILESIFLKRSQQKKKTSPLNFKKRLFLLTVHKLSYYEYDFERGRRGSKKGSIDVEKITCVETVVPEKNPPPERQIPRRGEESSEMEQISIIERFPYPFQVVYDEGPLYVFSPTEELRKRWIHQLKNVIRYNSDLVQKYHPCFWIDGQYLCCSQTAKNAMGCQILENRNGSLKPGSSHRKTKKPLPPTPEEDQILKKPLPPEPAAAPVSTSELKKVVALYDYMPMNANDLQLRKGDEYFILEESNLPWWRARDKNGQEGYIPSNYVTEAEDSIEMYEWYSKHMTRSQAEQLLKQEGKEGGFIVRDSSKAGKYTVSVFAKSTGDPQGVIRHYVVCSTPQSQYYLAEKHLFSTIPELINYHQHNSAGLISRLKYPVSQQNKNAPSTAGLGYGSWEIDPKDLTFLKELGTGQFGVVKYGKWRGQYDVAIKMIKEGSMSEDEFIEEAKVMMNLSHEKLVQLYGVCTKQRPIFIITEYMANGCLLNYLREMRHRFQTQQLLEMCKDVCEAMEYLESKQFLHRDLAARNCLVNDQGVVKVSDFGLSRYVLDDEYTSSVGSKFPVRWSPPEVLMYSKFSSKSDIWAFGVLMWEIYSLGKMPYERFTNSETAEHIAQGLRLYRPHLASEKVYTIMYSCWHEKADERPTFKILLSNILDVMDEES

| IC50 [1] | IC50 (read-out: Btk (IC50)) | IC50 (Btk (IC50)) | Compound |
| --- | --- | --- | --- |
| < 10 nM | < 10 nM |  | COc1ccc(C(=O)N[C@@H]2CCCN(c3cnc(C(N)=O)c(Nc4ccc(N5CCCCC5=O)cc4)n3)C2)cc1 [Example 128, (R)-5-(3-(4-methoxybenzamido)piperidin-1-yl)-3-(4-(2-oxopiperidin-1-yl)phenylamino)pyrazine-2-carboxamide] |
| < 10 nM | < 10 nM |  | CN1CCN(c2ccc(Nc3nc(N4CCC[C@@H](NC(=O)c5ccc(C(C)(C)C)cc5)C4)cnc3C(N)=O)cc2)CC1 [Example 129, (R)-5-(3-(4-tert-butylbenzamido)piperidin-1-yl)-3-(4-(4-methylpiperazin-1-yl)phenylamino)pyrazine-2-carboxamide] |
| < 10 nM | < 10 nM |  | CN1CCC(c2ccc(Nc3nc(N4CCC[C@@H](NC(=O)c5ccc(C(C)(C)C)cc5)C4)cnc3C(N)=O)cc2)CC1 [Example 130, (R)-5-(3-(4-tert-butylbenzamido)piperidin-1-yl)-3-(4-(1-methylpiperidin-4-yl)phenylamino)pyrazine-2-carboxamide] |
| < 10 nM | < 10 nM |  | COc1ccc(C(=O)N[C@@H]2CCCN(c3cnc(C(N)=O)c(Nc4ccc(C5CCN(C)CC5)cc4)n3)C2)cc1 [Example 131, (R)-5-(3-(4-methoxybenzamido)piperidin-1-yl)-3-(4-(1-methylpiperidin-4-yl)phenylamino)pyrazine-2-carboxamide] |
| < 10 nM | < 10 nM |  | COc1ccc(C(=O)N[C@@H]2CCCN(c3cnc(C(N)=O)c(Nc4ccc(C5CCN(C(C)C)CC5)cc4)n3)C2)cc1 [Example 134, (R)-3-(4-(1-isopropylpiperidin-4-yl)phenylamino)-5-(3-(4-methoxybenzamido)piperidin-1-yl)pyrazine-2-carboxamide] |
| < 10 nM | < 10 nM |  | COc1ccc(C(=O)N[C@@H]2CCCN(c3cnc(C(N)=O)c(Nc4ccc(C5CCN(C6CCCC6)CC5)cc4)n3)C2)cc1 [Example 135, (R)-3-(4-(1-cyclopentylpiperidin-4-yl)phenylamino)-5-(3-(4-methoxybenzamido)piperidin-1-yl)pyrazine-2-carboxamide] |
| 10 to 100 nM | 10 to 100 nM |  | COc1ccc(C(=O)N[C@@H]2CCCN(c3cnc(C(N)=O)c(Nc4ccc(C5CCN(CC#N)CC5)cc4)n3)C2)cc1 [Example 136, (R)-3-(4-(1-(cyanomethyl)piperidin-4-yl)phenylamino)-5-(3-(4-methoxybenzamido)piperidin-1-yl)pyrazine-2-carboxamide] |
| 10 to 100 nM |  | 10 to 100 nM | COc1ccc(C(=O)N[C@@H]2CCCN(c3cnc(C(N)=O)c(Nc4ccc(C5CCN(CC(F)(F)F)CC5)cc4)n3)C2)cc1 [Example 137, (R)-5-(3-(4-methoxybenzamido)piperidin-1-yl)-3-(4-(1-(2,2,2-trifluoroethyl)piperidin-4-yl)phenylamino)pyrazine-2-carboxamide] |
| < 10 nM | < 10 nM |  | COc1ccc(C(=O)N[C@@H]2CCCN(c3cnc(C(N)=O)c(Nc4ccc(C5CCN(C=O)CC5)cc4)n3)C2)cc1 [Example 138, (R)-3-(4-(1-formylpiperidin-4-yl)phenylamino)-5-(3-(4-methoxybenzamido)piperidin-1-yl)pyrazine-2-carboxamide] |
| < 10 nM | < 10 nM |  | COc1ccc(C(=O)N[C@@H]2CCCN(c3cnc(C(N)=O)c(Nc4ccc(C5CCN(C(C)=O)CC5)cc4)n3)C2)cc1 [Example 139, (R)-3-(4-(1-acetylpiperidin-4-yl)phenylamino)-5-(3-(4-methoxybenzamido)piperidin-1-yl)pyrazine-2-carboxamide] |
| 10 to 100 nM |  | 10 to 100 nM | COc1ccc(C(=O)N[C@@H]2CCCN(c3cnc(C(N)=O)c(Nc4ccc(C5CCN(C(=O)N(C)C)CC5)cc4)n3)C2)cc1 [Example 142, (R)-3-(4-(1-(dimethylcarbamoyl)piperidin-4-yl)phenylamino)-5-(3-(4-methoxybenzamido)piperidin-1-yl)pyrazine-2-carboxamide] |
| 10 to 100 nM |  | 10 to 100 nM | COc1ccc(C(=O)N[C@@H]2CCCN(c3cnc(C(N)=O)c(Nc4ccc(C5CCN(S(C)(=O)=O)CC5)cc4)n3)C2)cc1 [Example 143, (R)-5-(3-(4-methoxybenzamido)piperidin-1-yl)-3-(4-(1-(methylsulfonyl)piperidin-4-yl)phenylamino)pyrazine-2-carboxamide] |
| < 10 nM |  | < 10 nM | COc1ccc(C(=O)N[C@@H]2CCCN(c3cnc(C(N)=O)c(Nc4ccc(N5CCC(C(=O)N(C)C)CC5)cc4)n3)C2)cc1 [Example 144, (R)-3-(4-(4-(dimethylcarbamoyl)piperidin-1-yl)phenylamino)-5-(3-(4-methoxybenzamido)piperidin-1-yl)pyrazine-2-carboxamide] |
| < 10 nM | < 10 nM |  | CS(=O)(=O)c1ccc(Nc2nc(N3CCC[C@@H](NC(=O)N4CCCCC4)C3)cnc2C(N)=O)cc1 [Example 145, (R)-3-(4-(methylsulfonyl)phenylamino)-5-(3-(piperidine-1-carboxamido)piperidin-1-yl)pyrazine-2-carboxamide] |
| 10 to 100 nM |  | 10 to 100 nM | CN1CCN(c2ccc(Nc3nc(N4CCC[C@@H](NC(=O)N5CCCCC5)C4)cnc3C(N)=O)cc2)CC1 [Example 146, (R)-3-(4-(4-methylpiperazin-1-yl)phenylamino)-5-(3-(piperidine-1-carboxamido)piperidin-1-yl)pyrazine-2-carboxamide] |
| < 10 nM | < 10 nM |  | CN1CCC(c2ccc(Nc3nc(N4CCC[C@@H](NC(=O)N5CCCCC5)C4)cnc3C(N)=O)cc2)CC1 [Example 147, (R)-3-(4-(1-methylpiperidin-4-yl)phenylamino)-5-(3-(piperidine-1-carboxamido)piperidin-1-yl)pyrazine-2-carboxamide] |
| < 10 nM | < 10 nM |  | NC(=O)c1ncc(N2CCC[C@@H](NC(=O)N3CCCCC3)C2)nc1Nc1ccc(C2CCN(C=O)CC2)cc1 [Example 148, (R)-3-(4-(1-formylpiperidin-4-yl)phenylamino)-5-(3-(piperidine-1-carboxamido)piperidin-1-yl)pyrazine-2-carboxamide] |
| 10 to 100 nM |  | 10 to 100 nM | CCC(=O)N1CCC(c2ccc(Nc3nc(N4CCC[C@@H](NC(=O)N5CCCCC5)C4)cnc3C(N)=O)cc2)CC1 [Example 149, (R)-5-(3-(piperidine-1-carboxamido)piperidin-1-yl)-3-(4-(1-propionylpiperidin-4-yl)phenylamino)pyrazine-2-carboxamide] |
| < 10 nM | < 10 nM |  | N#CCC(=O)N1CCC(c2ccc(Nc3nc(N4CCC[C@@H](NC(=O)N5CCCCC5)C4)cnc3C(N)=O)cc2)CC1 [Example 150, (R)-3-(4-(1-(2-cyanoacetyl)piperidin-4-yl)phenylamino)-5-(3-(piperidine-1-carboxamido)piperidin-1-yl)pyrazine-2-carboxamide] |
| < 10 nM | < 10 nM |  | CN(C)C(=O)N[C@@H]1CCCN(c2cnc(C(N)=O)c(Nc3ccc(S(C)(=O)=O)cc3)n2)C1 [Example 151, (R)-5-(3-(3,3-dimethylureido)piperidin-1-yl)-3-(4-(methylsulfonyl)phenylamino)pyrazine-2-carboxamide] |
| < 10 nM | < 10 nM |  | CCC(=O)N1CCC(c2ccc(Nc3nc(N4CCC[C@@H](NC(=O)N(C)C)C4)cnc3C(N)=O)cc2)CC1 [Example 152, (R)-5-(3-(3,3-dimethylureido)piperidin-1-yl)-3-(4-(1-propionylpiperidin-4-yl)phenylamino)pyrazine-2-carboxamide] |
| < 10 nM | < 10 nM |  | CN(C)C(=O)N[C@@H]1CCCN(c2cnc(C(N)=O)c(Nc3ccc(C4CCN(C(=O)CC#N)CC4)cc3)n2)C1 [Example 153, (R)-3-(4-(1-(2-cyanoacetyl)piperidin-4-yl)phenylamino)-5-(3-(3,3-dimethylureido)piperidin-1-yl)pyrazine-2-carboxamide] |
| < 10 nM |  |  | CN(C)C(=O)N[C@@H]1CCCN(c2cnc(C(N)=O)c(Nc3ccc(C4CCNCC4)cc3)n2)C1 [Example 154, (R)-5-(3-(3,3-dimethylureido)piperidin-1-yl)-3-(4-(piperidin-4-yl)phenylamino)pyrazine-2-carboxamide] |
| < 10 nM | < 10 nM |  | CN(C)C(=O)N[C@@H]1CCCN(c2cnc(C(N)=O)c(Nc3ccc(C4CCN(C5CCCC5)CC4)cc3)n2)C1 [Example 155, (R)-3-(4-(1-cyclopentylpiperidin-4-yl)phenylamino)-5-(3-(3,3-dimethylureido)piperidin-1-yl)pyrazine-2-carboxamide] |

| Compound | IC50 [1] | IC50 (read-out: Btk (IC50)) | IC50 (Btk (IC50)) |
| --- | --- | --- | --- |
| CCN1CCC(c2ccc(Nc3nc(N4CCC[C@@H](NC(=O)c5ccc(OC)cc5)C4)cnc3C(N)=O)cc2)CC1 [Example 132, (R)-3-(4-(1-ethylpiperidin-4-yl)phenylamino)-5-(3-(4-methoxybenzamido)piperidin-1-yl)pyrazine-2-carboxamide] | < 10 nM | < 10 nM |  |
| COc1ccc(C(=O)N[C@@H]2CCCN(c3cnc(C(N)=O)c(Nc4ccc(C5CCN(C6CC6)CC5)cc4)n3)C2)cc1 [Example 133, (R)-3-(4-(1-cyclopropylpiperidin-4-yl)phenylamino)-5-(3-(4-methoxybenzamido)piperidin-1-yl)pyrazine-2-carboxamide] | < 10 nM | < 10 nM |  |
| CCC(=O)N1CCC(c2ccc(Nc3nc(N4CCC[C@@H](NC(=O)c5ccc(OC)cc5)C4)cnc3C(N)=O)cc2)CC1 [Example 140, (R)-5-(3-(4-methoxybenzamido)piperidin-1-yl)-3-(4-(1-propionylpiperidin-4-yl)phenylamino)pyrazine-2-carboxamide] | < 10 nM |  |  |
| COc1ccc(C(=O)N[C@@H]2CCCN(c3cnc(C(N)=O)c(Nc4ccc(C5CCN(C(=O)CC#N)CC5)cc4)n3)C2)cc1 [Example 141, (R)-3-(4-(1-(2-cyanoacetyl)piperidin-4-yl)phenylamino)-5-(3-(4-methoxybenzamido)piperidin-1-yl)pyrazine-2-carboxamide] | < 10 nM |  |  |
